Common to all, as to experiment: Zones of inhibition of impregnated catheter segments, modified Kirby-Bauer method
One assay has as its system MRSE. Format: cell-based, Staphylococcus epidermidis. To be noted: for zone of inhibition at 100000 µg/mL: catheter impregnated with 100 mg/ml of each agent. The protocol: (§1) To evaluate the antimicrobial activity of central venous catheters treated with α-lipoic acid or its combination with gentamicin, segments of 7 French triple lumen polyurethane central venous catheters were impregnated with α-lipoic acid, gentamicin, or the combination of lipoic acid and gentamicin using the same patented method described in Example 1 with 50 mg/ml of each agent (for the final solution volume). After the impregnation process and drying, zones of inhibition were performed on one-centimeter segments according to a modified Kirby-Bauer method against MSSE, MRSE, MRSA, K. pneumoniae, E. coli, P. mirabilis, Pseudomonas aeruginosa, and Candida albicans. Each segment was half embedded in the center of a Muller-Hinton agar plate that had been previously inoculated with an individual organism. Prior to placing the catheter segments in agar, each organism was grown for 18 hours in TSB to a concentration of 0.5 McFarland (10^8 cfu/ml). A cotton swab was placed in the suspension and streaked across the surface of the Muller-Hinton agar plate to cover the entire plate. All plates were placed in a 37° C. incubator for 24 hours. Zones were measured in mm after the incubation period (Table 2).
(§2) To evaluate the antimicrobial activity of central venous catheters treated with α-lipoic acid or its combination with doxycycline, segments of 7 French triple lumen polyurethane central venous catheters were impregnated with doxycycline or the combinations of α-lipoic acid and doxycycline using the same patented method described in Example 1 (U.S. Pat. No. 6,589,591) with 50 mg/ml of each agent (for the final solution volume). After the impregnation process and drying, zones of inhibition were performed on one-centimeter segments according to a modified Kirby-Bauer method against MSSE, MRSE, MRSA, K. pneumoniae, E. coli, P. aeruginosa, P. mirabilis, and C. albicans as described in Example 2. Zones of inhibition were measured in mm after the incubation period (Table 3).
(§3) To evaluate the antimicrobial activity of central venous catheters treated with lipoamide or its combination with levofloxacin, segments of 7 French triple lumen polyurethane central venous catheters were impregnated with levofloxacin or the combinations of lipoamide and levofloxacin using the same patented method described in Example 1 (U.S. Pat. No. 6,589,591) with 100 mg/ml (final solution volume) of each agent. After the impregnation process and drying, zones of inhibition were performed on one-centimeter segments according to a modified Kirby-Bauer method against MSSE, MRSE, MRSA, vancomycin-resistant Enterococcus (VRE), K. pneumoniae, E. coli, P. aeruginosa, P. mirabilis, and C. albicans as described in Example 2. Zones of inhibition were measured in mm after the incubation period (Table 4).
as §3, with “doxycycline,” for “levofloxacin,”, “doxycycline” for “levofloxacin”, “5).” for “4).”
(§4) To evaluate the antimicrobial activity of central venous catheters treated with dihydrolipoic acid, segments of 7 French triple lumen polyurethane central venous catheters were impregnated with dihydrolipoic acid using the same patented method described in Example 1 (U.S. Pat. No. 6,589,591) with 25 mg/ml (final solution volume) of the agent. […]

The next assay concerns MSSE. Format: cell-based, Staphylococcus epidermidis. To be noted: for zone of inhibition at 100000 µg/mL: catheter impregnated with 100 mg/ml of each agent. The protocol:
as §1, §2, §3
as §3, with “doxycycline,” for “levofloxacin,”, “doxycycline” for “levofloxacin”, “5).” for “4).”
as §4

For the next assay, the system named is MRSA. Format: cell-based, Staphylococcus aureus. To be noted: for zone of inhibition at 100000 µg/mL: catheter impregnated with 100 mg/ml of each agent. The protocol:
as §1, §2, §3
as §3, with “doxycycline,” for “levofloxacin,”, “doxycycline” for “levofloxacin”, “5).” for “4).”
as §4

The test system of assay [1] is vancomycin-resistant Enterococcus (VRE). Format: cell-based. Conditions: Enterococcus, catheter impregnated with 100 mg/ml of each agent. The protocol:
as §1
To evaluate the antimicrobial activity of central venous catheters treated with lipoamide or its combination with levofloxacin, segments of 7 French triple lumen polyurethane central venous catheters were impregnated with levofloxacin or the combinations of lipoamide and levofloxacin using the same patented method described in Example 1 (U.S. Pat. No. 6,589,591) with 100 mg/ml (final solution volume) of each agent. […] Zones of inhibition were measured in mm after the incubation period (Table 4).
To evaluate the antimicrobial activity of central venous catheters treated with lipoamide or its combination with doxycycline, segments of 7 French triple lumen polyurethane central venous catheters were impregnated with doxycycline or the combinations of lipoamide and doxycycline using the same patented method described in Example 1 (U.S. Pat. No. 6,589,591) with 100 mg/ml (final solution volume) of each agent. […] Zones of inhibition were measured in mm after the incubation period (Table 5).
To evaluate the antimicrobial activity of central venous catheters treated with dihydrolipoic acid, segments of 7 French triple lumen polyurethane central venous catheters were impregnated with dihydrolipoic acid using the same patented method described in Example 1 (U.S. Pat. No. 6,589,591) with 25 mg/ml (final solution volume) of the agent. […] Zones of inhibition were measured in mm after the incubation period (Table 6).

A further assay deals with Candida albicans. Format: cell-based. Conditions: for zone of inhibition at 100000 µg/mL: catheter impregnated with 100 mg/ml of each agent. As to the method:
as §1, §2, §3
as §3, with “doxycycline,” for “levofloxacin,”, “doxycycline” for “levofloxacin”, “5).” for “4).”
as §4

A further assay relates to Escherichia coli. Format: cell-based. To be noted: for zone of inhibition at 100000 µg/mL: catheter impregnated with 100 mg/ml of each agent. The protocol:
as §1, §2, §3
as §3, with “doxycycline,” for “levofloxacin,”, “doxycycline” for “levofloxacin”, “5).” for “4).”
as §4

A further assay concerns Klebsiella pneumoniae II. Format: cell-based. Conditions: for zone of inhibition at 100000 µg/mL: Klebsiella pneumoniae II, catheter impregnated with 100 mg/ml of each agent. As to the method:
as §1, §2, §3
as §3, with “doxycycline,” for “levofloxacin,”, “doxycycline” for “levofloxacin”, “5).” for “4).”
as §4

The test system of the next assay is Klebsiella pneumoniae I. Format: cell-based. Conditions: for zone of inhibition at 100000 µg/mL: catheter impregnated with 100 mg/ml of each agent. The protocol:
as §1, §2, §3
as §3, with “doxycycline,” for “levofloxacin,”, “doxycycline” for “levofloxacin”, “5).” for “4).”
as §4

In a further assay the test system is Proteus mirabilis. Format: cell-based. To be noted: for zone of inhibition at 100000 µg/mL: catheter impregnated with 100 mg/ml of each agent. As to the method: as §1, §2, §3
as §3, with “doxycycline,” for “levofloxacin,”, “doxycycline” for “levofloxacin”, “5).” for “4).”
as §4

The next assay deals with Pseudomonas aeruginosa. Format: cell-based. To be noted: Pseudomonas aeruginosa; for zone of inhibition at 100000 µg/mL: Pseudomonas aeroginosa, catheter impregnated with 100 mg/ml of each agent. The protocol:
as §1, §2, §3
as §3, with “doxycycline,” for “levofloxacin,”, “doxycycline” for “levofloxacin”, “5).” for “4).”
as §4

Where [2] appears, read: Staphylococcus epidermidis, catheter impregnated with 50 mg/ml of each agent, 37° C., 24 hours.
The mark [3] stands for this setting: catheter impregnated with 50 mg/ml of each agent, 37° C., 24 hours.

For the molecule `C[C@H]1c2cccc(O)c2C(=O)C2=C(O)[C@]3(O)C(=O)C(C(N)=O)=C(O)[C@@H](N(C)C)[C@@H]3[C@@H](O)[C@@H]21` [Doxycycline, doxycycline], the zone of inhibition at 50000 µg/mL in the assay on MRSE (setting [2]) was determined as 35 mm; with MSSE (setting [2]) it was 21 mm; in the assay with MRSA (Staphylococcus aureus, catheter impregnated with 50 mg/ml of each agent, 37° C., 24 hours), 22 mm; in the assay on Candida albicans (setting [3]), 13 mm; in the assay with Escherichia coli (setting [3]), 24 mm; in the assay on Klebsiella pneumoniae II (Klebsiella pneumoniae, Klebsielle pneuminiae II, catheter impregnated with 50 mg/ml of each agent, 37° C., 24 hours) it was 13 mm. The zone of inhibition at 50000 µg/mL in the assay on Klebsiella pneumoniae I (setting [3]) amounted to 17 mm; with Proteus mirabilis (setting [3]) it was 4 mm; with Pseudomonas aeruginosa (setting [3]), 13 mm. The zone of inhibition at 100000 µg/mL is 38 mm with MRSE (Staphylococcus epidermidis); 20 mm with MSSE (Staphylococcus epidermidis); 19 mm in the assay with MRSA (Staphylococcus aureus); 30 mm in [1]; 5 mm in the assay with Candida albicans; 22 mm with Escherichia coli. For the same molecule, the zone of inhibition at 100000 µg/mL was determined as 7 mm in the assay on Klebsiella pneumoniae II, 19 mm in the assay on Klebsiella pneumoniae I, 0 mm in the assay with Proteus mirabilis and 11 mm in the assay with Pseudomonas aeruginosa.
As for `C[C@H]1COc2c(N3CCN(C)CC3)c(F)cc3c(=O)c(C(=O)O)cn1c23` [Levofloxacin, levofloxacin], the zone of inhibition at 100000 µg/mL in the assay on MRSE (Staphylococcus epidermidis) stood at 31 mm; in the assay on MSSE (Staphylococcus epidermidis), 30 mm; in the assay on MRSA (Staphylococcus aureus), 21 mm; in assay [1] it was 7 mm; in the assay on Candida albicans it was 0 mm; in the assay on Escherichia coli, 27 mm. The zone of inhibition at 100000 µg/mL in the assay with Klebsiella pneumoniae II was determined as 18 mm; with Klebsiella pneumoniae I, 24 mm; in the assay on Proteus mirabilis it was 31 mm; in the assay with Pseudomonas aeruginosa, 19 mm.
For gentamicin, the Zones of inhibition stood at 22 mm in the assay on MRSE (setting [3]); 21 mm in the assay with MSSE (setting [3]); 15 mm with MRSA (setting [3]); 0 mm in the assay on Candida albicans (setting [3]); 12 mm in the assay with Escherichia coli (setting [3]); 0 mm with Klebsiella pneumoniae II (Klebsielle pneuminiae II, catheter impregnated with 50 mg/ml of each agent, 37° C., 24 hours). The figures for the Zones of inhibition in the assay with Klebsiella pneumoniae I (setting [3]), in the assay on Proteus mirabilis (setting [3]) and with Pseudomonas aeruginosa (setting [3]) were 13 mm, 14 mm and 5 mm, respectively.

The record behind these values is patent US9956319B2, “Compositions useful as antibiofilm or antimicrobial agents and methods using same” (BAYLOR COLLEGE OF MEDICINE, priority 2012, dated 2018).
